Like-named read-outs stand apart in the source and are kept apart here.
What was measured:
Assay in all cases: Kinase panel profiling at 1 µmol/L (MSA or IMAP), percentage inhibition
Assay type in all cases: biochemical
[1] = target: T1, panel of 255 wild-type kinases (Homo sapiens, UniProt P51817); conditions: read-out: %-inhibition at 1 µmol/L, PRKX
T1 sequence (P51817 1-358): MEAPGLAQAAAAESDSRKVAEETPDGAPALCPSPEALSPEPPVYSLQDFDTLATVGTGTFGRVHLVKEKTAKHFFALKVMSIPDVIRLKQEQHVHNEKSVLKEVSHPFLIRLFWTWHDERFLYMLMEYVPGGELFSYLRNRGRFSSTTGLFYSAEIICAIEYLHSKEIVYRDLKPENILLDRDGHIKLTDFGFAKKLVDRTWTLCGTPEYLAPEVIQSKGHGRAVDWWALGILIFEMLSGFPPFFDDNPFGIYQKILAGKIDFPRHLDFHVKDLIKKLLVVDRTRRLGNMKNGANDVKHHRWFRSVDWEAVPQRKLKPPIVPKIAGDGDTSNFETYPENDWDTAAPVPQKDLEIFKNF

[2] = target: panel of 255 wild-type kinases (Homo sapiens, UniProt O43683); conditions: read-out: %-inhibition BUB1/BUB3
[3] = target: panel of 255 wild-type kinases (Homo sapiens, UniProt P49137); conditions: read-out: %-inhibition at 1 µmol/L, MAPKAPK2
[4] = target: panel of 255 wild-type kinases (Homo sapiens, UniProt P31751); conditions: read-out: %-inhibition AKT2
[5] = target: panel of 255 wild-type kinases (Homo sapiens, UniProt P09619); conditions: read-out: %-inhibition at 1 µmol/L, PDGFRβ
[6] = target: panel of 255 wild-type kinases (Homo sapiens, UniProt Q9UK32); conditions: read-out: %-inhibition at 1 µmol/L, RSK4
[7] = target: panel of 255 wild-type kinases (Homo sapiens, UniProt Q9BYP7); conditions: read-out: %-inhibition at 1 µmol/L, WNK3
[8] = target: panel of 255 wild-type kinases (Homo sapiens, UniProt Q15303); conditions: read-out: %-inhibition at 1 µmol/L, HER4
[9] = target: T2, panel of 255 wild-type kinases (Homo sapiens, UniProt O15264); conditions: read-out: %-inhibition, p38δ
T2 sequence (O15264 1-365): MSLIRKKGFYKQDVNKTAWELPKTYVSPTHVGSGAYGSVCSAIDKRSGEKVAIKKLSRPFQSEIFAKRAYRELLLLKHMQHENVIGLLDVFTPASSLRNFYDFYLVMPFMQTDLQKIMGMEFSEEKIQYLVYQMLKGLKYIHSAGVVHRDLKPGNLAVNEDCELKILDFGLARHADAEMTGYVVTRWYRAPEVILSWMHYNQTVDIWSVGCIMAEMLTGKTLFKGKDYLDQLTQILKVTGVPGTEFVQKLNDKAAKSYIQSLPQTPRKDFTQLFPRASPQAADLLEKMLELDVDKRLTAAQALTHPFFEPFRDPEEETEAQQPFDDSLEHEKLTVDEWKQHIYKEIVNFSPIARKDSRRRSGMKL

[10] = target: panel of 255 wild-type kinases (Homo sapiens, UniProt P54756); conditions: read-out: %-inhibition at 1 µmol/L, EPHA5
[11] = target: panel of 255 wild-type kinases (Homo sapiens, UniProt P51812); conditions: read-out: %-inhibition at 1 µmol/L, RSK2
[12] = target: panel of 255 wild-type kinases (Homo sapiens, UniProt Q9P0L2); conditions: read-out: %-inhibition, MARK1
[13] = target: T3, panel of 255 wild-type kinases (Homo sapiens, UniProt Q8NE63); conditions: read-out: %-inhibition at 1 µmol/L, HIPK4
T3 sequence (Q8NE63 1-616): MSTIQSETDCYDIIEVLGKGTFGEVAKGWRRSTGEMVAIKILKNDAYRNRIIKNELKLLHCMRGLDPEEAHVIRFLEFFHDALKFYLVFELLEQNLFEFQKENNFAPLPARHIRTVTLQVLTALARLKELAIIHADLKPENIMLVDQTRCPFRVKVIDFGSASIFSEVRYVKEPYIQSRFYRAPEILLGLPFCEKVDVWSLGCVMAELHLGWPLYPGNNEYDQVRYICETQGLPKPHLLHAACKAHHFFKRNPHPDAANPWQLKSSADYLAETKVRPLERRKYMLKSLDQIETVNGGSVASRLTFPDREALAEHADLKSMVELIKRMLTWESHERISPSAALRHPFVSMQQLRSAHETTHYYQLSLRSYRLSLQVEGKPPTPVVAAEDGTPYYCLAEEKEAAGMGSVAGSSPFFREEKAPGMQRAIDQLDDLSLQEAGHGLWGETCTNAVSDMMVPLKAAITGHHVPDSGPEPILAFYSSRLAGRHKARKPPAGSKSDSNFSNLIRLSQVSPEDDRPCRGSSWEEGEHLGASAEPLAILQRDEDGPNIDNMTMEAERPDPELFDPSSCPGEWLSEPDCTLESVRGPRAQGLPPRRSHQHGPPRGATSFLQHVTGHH

[14] = kinase PRKX, 1 µmol/L single concentration
[15] = BUB1/BUB3 kinase assay, 1 µmol/L single concentration
[16] = kinase MAPKAPK2, 1 µmol/L single concentration
[17] = AKT2 kinase assay, 1 µmol/L single concentration
[18] = kinase PDGFRβ, 1 µmol/L single concentration
[19] = kinase RSK4, 1 µmol/L single concentration
[20] = kinase WNK3, 1 µmol/L single concentration
[21] = kinase HER4, 1 µmol/L single concentration
[22] = p38δ, 1 µmol/L single concentration
[23] = kinase EPHA5, 1 µmol/L single concentration
[24] = kinase RSK2, 1 µmol/L single concentration
[25] = MARK1, 1 µmol/L single concentration
[26] = kinase HIPK4, 1 µmol/L single concentration

SMILES	inhibition at 1 µM [1, 14] [%]	inhibition at 1 µM [2, 15] [%]	inhibition at 1 µM [3, 16] [%]	inhibition at 1 µM [4, 17] [%]	inhibition at 1 µM [5, 18] [%]	inhibition at 1 µM [6, 19] [%]	inhibition at 1 µM [7, 20] [%]	inhibition at 1 µM [8, 21] [%]	inhibition at 1 µM [9, 22] [%]	inhibition at 1 µM [10, 23] [%]	inhibition at 1 µM [11, 24] [%]	inhibition at 1 µM [12, 25] [%]	inhibition at 1 µM [13, 26] [%]	also measured
CCN1CCN(c2ccc(Nc3cc(N(C)C(=O)Nc4c(Cl)c(OC)cc(OC)c4Cl)ncn3)cc2)CC1 [infigratinib]	-3.53	-1.66	-32	-0.769	59	7	1.62	26	-4	-8	-7	-9	6	–
COc1ccc(CN2C3CC2CN(c2ccc(-c4cc(OCC(C)(C)O)cn5ncc(C#N)c45)cn2)C3)cn1 [selpercatinib]	55	19	-5.47	-1.76	94	43	-1.49	7.42	-6.33	69	47	22	21	–
Cn1cnc2c(F)c(Nc3ccc(Br)cc3Cl)c(C(=O)NOCCO)cc21 [selumetinib]	-4.53	-4	-5	0.316	20	5.4	-1.43	33	-4	-12	-1.52	-16	10	–
CCc1nc(C(N)=O)c(Nc2ccc(N3CCC(N4CCN(C)CC4)CC3)c(OC)c2)nc1NC1CCOCC1 [gilteritinib]	4	54	-27	-4.73	105	44	5	83	1.74	52	48	27	99	–
CCN1C(=O)N(c2c(F)c(OC)cc(OC)c2F)Cc2cnc3[nH]c(CN4CCOCC4)cc3c21 [pemigatinib]	-1.75	-3.37	-0.432	-2.2	73	-7	-0.586	5	-6	-2	-5	57	28	–
Cn1cc(-c2cc3c(N4CCN(c5ncc([C@@](C)(N)c6ccc(F)cc6)cn5)CC4)ncnn3c2)cn1 [avapritinib]	37	4	-0.02	-0.192	95	7.6	-0.0892	25	0.654	41	2.57	-10	46	–
CNC(=O)c1ccc(-c2cnc3ncc(Cc4ccc5ncccc5c4)n3n2)cc1F [capmatinib]	–	–	–	–	–	–	–	–	–	–	–	–	–	inhibition at 1 µM [1]: -5.65%; inhibition at 1 µM [2]: 1.44%; inhibition at 1 µM [3]: -28%; inhibition at 1 µM [4]: 1.54%; inhibition at 1 µM [5]: 20%; inhibition at 1 µM [6]: 8%; inhibition at 1 µM [7]: -1.77%; inhibition at 1 µM [8]: 21%; inhibition at 1 µM [9]: -4%; inhibition at 1 µM [10]: -13%; inhibition at 1 µM [11]: -3%; inhibition at 1 µM [12]: -5.32%; inhibition at 1 µM [13]: 3.67%
C[C@H](Nc1ncnc2nc[nH]c12)c1cc2cccc(Cl)c2c(=O)n1-c1ccccc1 [duvelisib]	0.385	-3.41	-16	-0.908	2	-5	-0.718	-0.702	-3	0.787	-3.62	4.47	5	–
